Experimental data reported in paper PMC9415646, “Improving Aqueous Solubility and In Vitro Pharmacokinetic Properties of the 3-Nitroimidazo[1,2-a]pyridine Antileishmanial Pharmacophore” (Pharmaceuticals, 2022).
Where two headings read alike, the source gives them in different places.

Assays:
[1] = tested on: L. infantum axenic amastigotes; test: Antileishmanial activity on L. infantum axenic amastigotes (luciferase assay); type: cell-based; conditions: Leishmania infantum, 48 h, read-out: EC50 L. infantum Axenic Ama.
Procedure: L. infantum promastigotes were harvested in logarithmic phase of growth by centrifugation at 900× g for 10 min. The supernatant was removed carefully and was replaced by the same volume of RPMI 1640 complete medium at pH 5.4 and incubated for 24 h at 24 °C. The acidified promastigotes were then incubated for 24 h at 37 °C in a ventilated flask to transform them into axenic amastigotes. The amastigote stage was checked both by electron microscopy (short flagellum with small bulbous tip extending beyond a spherical cell body) and RT-PCR to confirm the overexpression of ATG8 and amastin genes in amastigotes, relative to promastigotes. The effects of the tested compounds on the growth of L. infantum axenic amastigotes were assessed as follows. L. infantum amastigotes were incubated at a density of 2 × 10^6 parasites/mL in sterile 96-well plates with various concentrations of compounds dissolved in DMSO (final concentration less than 0.5% v/v), in duplicate. Appropriate controls treated with DMSO, amphotericin B, miltefosine, fexinidazole and fexinidazole sulfone were added to each set of experiments. After a 48 h incubation period at 37 °C, each plate-well was then microscopically examined to detect any precipitate formation.
(§1) • Luciferase activity and determination of EC50 were performed as above.

[2] = tested on: L. infantum intracellular amastigotes; test: Antileishmanial activity on L. infantum intracellular (intra-THP1 macrophage) amastigotes; type: cell-based; conditions: Leishmania infantum, THP-1; intramacrophage (THP1) amastigotes, 120 h; read-out: EC50 L. infantum Intra. Ama.
Procedure: The undifferentiated THP1 human monocyte cells (acute monocytic leukemia cell line purchased from ATCC, ref TIB-202) were grown in RPMI 1640 medium (Life Technologies, Saint-Aubin, France) supplemented with 10% FCS (Life Technologies, Saint-Aubin, France), 100 U/mL penicillin, 100 µg/mL streptomycin and 2 mM L-glutamine at 37 °C, 5% CO2. The culture was maintained between 3.10^5 and 1.10^6 cells/mL. The in vitro evaluation of the antileishmanial activity on intracellular amastigote forms of the tested compound was assessed as below.
Briefly, 200 μL of THP-1 cells with Phorbol 12-Myristate 13-Acetate (final concentration 50 ng/mL) were seeded in 96-well plates at an average density of 0.77 × 10^5 cells/mL and incubated for 96 h at 37 °C, 5% CO2. Promastigotes were centrifuged at 3000 rpm for 10 min and the supernatant replaced by the same volume of complete RPMI pH 5.4 and incubated for 24 h at 27 °C. Differentiated THP-1 cells were then infected by acidified promastigotes with an infection ratio of twenty parasites for one macrophage and incubated for 24 h at 37 °C, 5% CO2.
as §1

[3] = tested on: L. infantum promastigotes; test: Antileishmanial activity against L. infantum promastigotes (luciferase assay); type: cell-based; conditions: Leishmania infantum, 72 h, read-out: EC50 L. infantum Pro.
Procedure: L. infantum promastigotes (MHOM/MA/67/ITMAP-263, CNR Leishmania, Montpellier, France, expressing luciferase activity) were used in the following tests. The effects of the tested compounds on the growth of L. infantum promastigotes were assessed by Luciferase Assay. Briefly, promastigotes in log-phase in RPMI 1640 medium supplemented with 10% fetal calf serum (FCS), 2 mM L-glutamine and antibiotics (100U/mL penicillin, 100 µg/mL streptomycin and 50µg/mL geneticin), were incubated at an average density of 10^6 parasites/mL (100 µL/well) in sterile 96-well plates with various concentrations of compounds dissolved in DMSO (final concentration less than 0.5% v/v), in duplicate. Appropriate controls (100 µL/well) treated by DMSO and reference drugs (purchased for the majority from Sigma Aldrich) were added to each set of experiments. After a 72 h incubation period at 24 °C, each plate-well was then microscope-examined for detecting possible precipitate formation. To estimate the luciferase activities of promastigotes, 80 µL of each well are transferred in white 96-well plates, Steady Glow reagent (Promega) was added according to manufacter’s instructions, and plates were incubated for 2 min. The luminescence was measured in a FLUOstar Omega (BMG Labtech, Champigny-sur-Marne, France). […] EC50 were calculated by non-linear regression analysis processed on dose–response curves, using TableCurve 2D V5 software.

[4] = Cytotoxicity on THP-1 cell line (MTT); type: cell-based; conditions: human, THP-1 cells, THP1 cell line
Procedure: The plates were incubated for 72 h at 37 °C. Each well plate was then microscope-examined for detecting possible precipitate formation before the medium was aspirated from the wells. 100 µL of MTT solution (0.5 mg/mL in medium) were then added to each well. Cells were incubated for 2 h at 37 °C. […] Plates were shaken vigorously (300 rpm) for 10 min. The absorbance was measured at 570 nm using a BIO-TEK ELx808 Absorbance Microplate Reader. DMSO was used as blank and doxorubicin (purchased from Sigma Aldrich) as positive control. Cell viability was calculated as percentage of control (cells incubated with DMSO). […] (Palo Alto, CA, USA). CC50 values represent the mean value calculated from three separate experiments.

[5] = tested on: L. donovani promastigotes; test: Antileishmanial activity against L. donovani promastigotes (MTT assay); type: cell-based; conditions: Leishmania donovani, 72 h, read-out: EC50 L. donovani Pro.
Procedure: The Leishmania species used in this study were L. donovani (MHOM/IN/00/DEVI) purchased from CNR Leishmania (Montpellier, France). Leishmania promastigote forms were grown in Schneider’s Drosophila medium (Life Technologies, Saint-Aubin, France) supplemented with 100 U/mL penicillin, 100 µg/mL streptomycin, 2 mM L-glutamine and 20% FCS (Life Technologies, Saint-Aubin, France) at 27 °C. The in vitro evaluation of the tested compound’s antileishmanial activity on promastigote forms was carried out by MTT assay according to the Mosmann protocol with some modifications. Briefly, promastigotes in log-phase were incubated at an average density of 10^6 parasites/mL in sterile 96-well plates with various concentrations of compound dissolved in DMSO (final concentration less than 0.5% v/v), in duplicate. Appropriate controls treated with DMSO, Miltefosine, Amphotericin B, Fexinidazole, and Fexinidazole sulfone (reference drugs purchased from Sigma-Aldrich, Saint-Louis, Missouri, USA) were added to each set of experiments. After a 72 h incubation period at 27 °C, parasitic metabolic activity was determined. Each plate-well was then microscope-analyzed to detect any precipitate formation. 20 µL of MTT (3-(4,5-dimethylthiazol-2-yl)-2,5-diphenyltetrazolium bromide) (Sigma-Aldrich, Saint-Louis, Missouri, USA) solution (5 mg/mL in PBS) were added to each well and incubated for 4 h at 27 °C. The enzyme reaction was then stopped by addition of 100 µL of 50% isopropanol–10% sodium dodecyl sulfate. Plates were shaken vigorously at 300 rpm for 10 min. The absorbance was measured at 570 nm in a BIO-TEK Elx808 (Biotek, Colmar, France) absorbance microplate reader. […] EC50 values were calculated by non-linear regression analysis processed dose-response curves, using TableCurve 2D V5.0 software (Systat Software Inc. (Palo Alto, CA, USA)). EC50 values represent the mean value calculated from at least three separate experiments.

[6] = tested on: T. b. brucei BSF trypomastigotes; test: Antitrypanosomal evaluation on T. b. brucei BSF trypomastigotes (Alamar Blue); type: cell-based; conditions: Trypanosoma brucei, trypomastigote blood stream form
Procedure: The effects of the tested compounds on the growth of T. b. brucei were assessed by Alamar Blue® assay described by Räz et al. T. b. brucei AnTat 1.9 (IMTA, Antwerpen, Belgium) was cultured in MEM with Earle’s salts, supplemented according to the protocol of Baltz et al. with the following modifications: 0.5 mM mercaptoethanol (Sigma Aldrich®, France), 1.5 mM L-cysteine (Sigma Aldrich®), 0.05 mM bathocuproïne sulfate (Sigma Aldrich®) and 20% heat-inactivated horse serum (Gibco®, France), at 37 °C and 5% CO2. They were incubated at an average density of 2000 parasites/100 µL in sterile 96-wells plates (Fisher®, France) with various concentrations of compounds dissolved in DMSO, in duplicate. Appropriate controls suramin, treated with sterile water, and fexinidazole, treated with DMSO on sterile water (reference drugs purchased from Sigma Aldrich, France and Fluorochem, UK) were added to each set of experiments. After a 69 h incubation period at 37 °C, 10 µL of the viability marker Alamar Blue® (Fisher, France) were then added to each well, and the plates were incubated for 5 h. The plates were read in a ENSPIRE microplate reader (PerkinElmer, Waltham, MA, USA) using an excitation wavelength of 530 nm and an emission wavelength of 590 nm. […] EC50 were calculated by nonlinear regression analysis processed on dose-response curves, using GraphPad Prism software (USA). EC50 values were calculated from three separate experiments.

[7] = Cytotoxicity evaluation on HepG2 cell line (MTT); type: cell-based; conditions: human, HepG2 cells
Procedure: The tested molecules’ cytotoxicity was assessed according to the method of Mosmann with slight modifications. […] Triplicate assays were performed for each sample. Each plate-well was then microscope-examined to detect possible precipitate formation before the medium was aspirated from the wells. 100 µL of MTT (3-(4,5-dimethyl-2-thiazolyl)-2,5-diphenyl-2H-tetrazolium bromide) solution (0.5 mg/mL in medium without FCS) were then added to each well. […] Plates were shaken vigorously (700 rpm) for 10 min. The absorbance was measured at 570 nm with 630 nm as reference wavelength using a BIO-TEK ELx808 Absorbance Microplate Reader. DMSO was used as blank and doxorubicin (purchased from Sigma Aldrich) as positive control. Cell viability was calculated as percentage of control (cells incubated without compound). […] (Palo Alto, CA, USA)). CC50 values represent the mean value calculated from three separate experiments.

| SMILES | EC50 [1] [µM] | EC50 [2] [µM] | EC50 [3] [µM] | CC50 at 72 h [4] [µM] | melting point [°C] | EC50 ([5]; promastigotes, MTT) [µM] | EC50 [6] [µM] | CC50 at 72 h [7] [µM] | EC50 [5] [µM] |
| --- | --- | --- | --- | --- | --- | --- | --- | --- | --- |
| CCCCCCCCCCCCCCCCOP(=O)([O-])OCC[N+](C)(C)C [Miltefosine, reference compound] | 0.3 ± 0.02 | 0.4 ± 0.14 | 18.2 ± 0.5 | 28.1 ± 3.4 | – | – | – | – | – |
| O=[N+]([O-])c1c(CS(=O)(=O)c2ccc(O)cc2)nc2c(Br)cc(Cl)cn12 [Compound 2c, 4-{[(8-Bromo-6-Chloro-3-Nitroimidazo[1,2-a]pyridin-2-yl)methyl]sulfonyl}phenol] | > 5 | – | > 100 | > 100 | 242 | > 3.1 | 0.4 ± 0.03 | > 3.9 | – |
| Cn1c([N+](=O)[O-])cnc1COc1ccc(S(C)(=O)=O)cc1 [Fexinidazole sulfone, reference compound] | 4.3 ± 0.1 | 17.8 ± 1.4 | 1.1 ± 0.1 | > 100 | – | 1.2 ± 0.2 | – | – | – |
| O=[N+]([O-])c1c(CS(=O)(=O)CCC(F)(F)F)nc2c([S+]([O-])c3ccc(Cl)cc3)cc(Cl)cn12 (stereo not drawn) [Compound 6a, 6-Chloro-8-[(4-Chlorophenyl)sulfinyl]-3-Nitro-2-[(3,3,3-Trifluoropropylsulfonyl)methyl] imidazo[1,2-a]pyridine] | 5 ± 0.1 | 3.3 ± 0.2 | 7.4 ± 0.4 | > 100 | 221 | 1.9 ± 0.3 | – | > 5 | – |
| C[C@@H]1[C@H](O)[C@@H](C)/C=C/C=C/C=C/C=C/C=C/C=C/C=C/[C@H](O[C@@H]2O[C@H](C)[C@@H](O)[C@H](N)[C@@H]2O)C[C@@H]2O[C@](O)(C[C@@H](O)C[C@@H](O)[C@H](O)CC[C@@H](O)C[C@@H](O)CC(=O)O[C@H]1C)C[C@H](O)[C@H]2C(=O)O [Amphotericin B, reference compound] | 0.08 ± 0.02 | 0.06 ± 0.01 | 0.04 ± 0.01 | 12.1 ± 1.3 | – | – | – | – | 0.07 ± 0.01 |
| Cc1ccc(C(=O)Nc2ccc(S(=O)(=O)O)c3cc(S(=O)(=O)O)cc(S(=O)(=O)O)c23)cc1NC(=O)c1cccc(NC(=O)Nc2cccc(C(=O)Nc3cc(C(=O)Nc4ccc(S(=O)(=O)O)c5cc(S(=O)(=O)O)cc(S(=O)(=O)O)c45)ccc3C)c2)c1 [Suramin, reference compound] | – | – | – | – | – | – | 0.08 ± 0.04 | > 100 | – |
